In patent publication US20100311729A1, “Substituted imidazopyridazines and pyrrolopyrimidines as lipid kinase inhibitors” (priority 2007, published 2010) one finds IC50 data, which are given here for nine molecules.

Common to all, as to assay type: biochemical
Experiment [1] addresses T1, PI3K beta (Homo sapiens, UniProt P42338).
T1 construct: for the full-length p110-b subunit are generated and fused by overlapping PCR; His tag (C); made in house; host or cells: baculovirus; Tn5 (Trichoplusia ni) or TiniPro insect cells
Put plainly: PI3 kinase assay (Kinase-Glo luminescence), PI3K beta. The note with it: Enzymatic Data; read-out: PI3K beta IC50 [umol]. A digest of the protocol:
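PI3Kβ (25 nM, BV-949) with 10 μg/mL phosphatidylinositol in Tris pH 7.5/MgCl2/NaCl/CHAPS/DTT buffer; reaction started with 1 μM ATP, 60 min at room temperature. ATP depletion read by Kinase-Glo luminescence; 8-point dilutions, IC50 by four-parameter logistic fit.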
On the technique in general: Kinase-Glo reads ATP consumption through a luciferase reaction.

The target in experiment [2] is T2, PI3K gamma (Homo sapiens, UniProt P48736).
T2 construct: PI3Kγ BV-950 p110g(D144aa)-C-Term His Tag; His tag (C); made in house; host or cells: construct from the Roger Williams lab (MRC LMB) in pVL1393; baculovirus; Tn5 (Trichoplusia ni) or TiniPro insect cells
T2 sequence (P48736 144-1102 limits assumed): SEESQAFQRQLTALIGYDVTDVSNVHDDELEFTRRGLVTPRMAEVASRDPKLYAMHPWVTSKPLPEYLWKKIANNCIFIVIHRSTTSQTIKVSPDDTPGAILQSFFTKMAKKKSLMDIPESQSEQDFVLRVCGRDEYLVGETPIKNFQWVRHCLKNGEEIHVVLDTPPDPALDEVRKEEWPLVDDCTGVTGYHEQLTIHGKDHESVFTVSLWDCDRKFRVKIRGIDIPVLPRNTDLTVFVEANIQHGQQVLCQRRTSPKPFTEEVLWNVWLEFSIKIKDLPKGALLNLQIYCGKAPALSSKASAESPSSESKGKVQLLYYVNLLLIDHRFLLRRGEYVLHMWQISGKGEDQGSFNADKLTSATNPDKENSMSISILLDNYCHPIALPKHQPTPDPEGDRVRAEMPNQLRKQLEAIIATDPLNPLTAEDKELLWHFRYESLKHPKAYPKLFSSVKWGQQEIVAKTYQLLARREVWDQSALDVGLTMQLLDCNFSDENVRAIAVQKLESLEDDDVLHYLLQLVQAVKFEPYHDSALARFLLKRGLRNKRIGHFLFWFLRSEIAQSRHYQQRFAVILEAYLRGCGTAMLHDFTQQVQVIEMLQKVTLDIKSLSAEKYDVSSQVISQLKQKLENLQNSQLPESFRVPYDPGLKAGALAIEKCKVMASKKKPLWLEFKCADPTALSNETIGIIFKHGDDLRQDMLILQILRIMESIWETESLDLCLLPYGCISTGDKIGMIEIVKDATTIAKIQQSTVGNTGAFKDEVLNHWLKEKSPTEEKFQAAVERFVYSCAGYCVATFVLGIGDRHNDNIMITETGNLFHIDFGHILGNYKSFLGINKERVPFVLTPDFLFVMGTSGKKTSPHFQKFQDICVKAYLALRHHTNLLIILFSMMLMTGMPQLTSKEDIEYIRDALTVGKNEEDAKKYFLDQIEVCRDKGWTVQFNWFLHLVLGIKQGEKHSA
Put plainly: PI3 kinase assay (Kinase-Glo luminescence), PI3K gamma. The note with it: Enzymatic Data; read-out: PI3K gamma IC50 [umol]. An outline of the steps: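 Kinase-Glo luminescence assay with 1 μM ATP and 10 μg/mL phosphatidylinositol (final), reaction started by ATP addition. IC50 from 4-parameter logistic fit of percent inhibition at 8 compound concentrations (usually 10 down to 0.003 […]).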

Experiment [3] concerns the target T3, PI3K alfa (Homo sapiens, UniProt P42336).
T3 construct: for the p110-a subunit (with a deletion of the first 20 amino acids); His tag (C); made in house; host or cells: baculovirus; Tn5 (Trichoplusia ni) or TiniPro insect cells
Put plainly: PI3 kinase assay (Kinase-Glo luminescence), PI3K alfa. The note with it: Enzymatic Data; read-out: PI3K alfa IC50 [umol]. A digest of the protocol:
(§1)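 Recombinant PI3K constructs (alfa 10 nM, delta 10 nM, gamma 150 nM) with 1 μM ATP and 10 μg/mL phosphatidylinositol in Tris pH 7.5, MgCl2, NaCl, CHAPS, DTT; 60 min (alfa, delta) or 120 min (gamma) at room temperature. ATP depletion read by Kinase-Glo luminescence; IC50 from 4-parameter logistic fit over 8 concentrations.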

In experiment [4] the target is T4, PI3K delta (Homo sapiens, UniProt O00329).
T4 construct: for the full-length p110-d subunit are generated and fused by overlapping PCR; His tag (C); made in house; host or cells: baculovirus; Tn5 (Trichoplusia ni) or TiniPro insect cells
T4 sequence (O00329 with tags, fused parts or gaps limits assumed): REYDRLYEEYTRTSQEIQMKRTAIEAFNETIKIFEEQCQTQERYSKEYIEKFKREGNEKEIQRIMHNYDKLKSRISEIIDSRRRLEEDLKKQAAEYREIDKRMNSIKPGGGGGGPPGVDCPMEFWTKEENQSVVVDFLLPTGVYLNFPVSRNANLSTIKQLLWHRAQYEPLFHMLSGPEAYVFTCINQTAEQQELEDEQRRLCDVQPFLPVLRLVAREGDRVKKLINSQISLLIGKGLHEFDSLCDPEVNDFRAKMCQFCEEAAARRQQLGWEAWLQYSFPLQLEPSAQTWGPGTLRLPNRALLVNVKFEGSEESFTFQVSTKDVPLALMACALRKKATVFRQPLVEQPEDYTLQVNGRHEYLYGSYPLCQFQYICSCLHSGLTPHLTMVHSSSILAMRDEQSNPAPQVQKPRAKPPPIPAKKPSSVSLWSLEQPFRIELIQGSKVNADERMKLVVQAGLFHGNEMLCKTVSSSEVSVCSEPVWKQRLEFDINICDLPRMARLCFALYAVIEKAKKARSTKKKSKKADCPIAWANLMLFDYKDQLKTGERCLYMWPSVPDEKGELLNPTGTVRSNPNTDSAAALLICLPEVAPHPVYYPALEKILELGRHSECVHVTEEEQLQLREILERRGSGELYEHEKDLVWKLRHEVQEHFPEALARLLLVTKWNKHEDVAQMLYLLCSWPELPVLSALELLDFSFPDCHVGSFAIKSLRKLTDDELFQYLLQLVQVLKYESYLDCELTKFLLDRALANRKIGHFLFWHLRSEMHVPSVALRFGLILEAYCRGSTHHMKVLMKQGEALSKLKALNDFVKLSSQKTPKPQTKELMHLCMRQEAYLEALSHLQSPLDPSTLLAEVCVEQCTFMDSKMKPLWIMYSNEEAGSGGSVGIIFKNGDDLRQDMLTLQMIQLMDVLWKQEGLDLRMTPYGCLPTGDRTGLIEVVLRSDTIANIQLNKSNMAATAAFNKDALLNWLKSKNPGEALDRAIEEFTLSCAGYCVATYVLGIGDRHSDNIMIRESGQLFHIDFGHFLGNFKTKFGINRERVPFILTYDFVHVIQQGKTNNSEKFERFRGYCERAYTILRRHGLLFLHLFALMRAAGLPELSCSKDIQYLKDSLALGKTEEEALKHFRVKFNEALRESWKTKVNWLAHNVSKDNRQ
Put plainly: PI3 kinase assay (Kinase-Glo luminescence), PI3K delta. As to conditions: Enzymatic Data; read-out: PI3K delta IC50 [umol]. An outline of the steps:
as §1

T3 sequence (P42336 with tags, fused parts or gaps limits assumed): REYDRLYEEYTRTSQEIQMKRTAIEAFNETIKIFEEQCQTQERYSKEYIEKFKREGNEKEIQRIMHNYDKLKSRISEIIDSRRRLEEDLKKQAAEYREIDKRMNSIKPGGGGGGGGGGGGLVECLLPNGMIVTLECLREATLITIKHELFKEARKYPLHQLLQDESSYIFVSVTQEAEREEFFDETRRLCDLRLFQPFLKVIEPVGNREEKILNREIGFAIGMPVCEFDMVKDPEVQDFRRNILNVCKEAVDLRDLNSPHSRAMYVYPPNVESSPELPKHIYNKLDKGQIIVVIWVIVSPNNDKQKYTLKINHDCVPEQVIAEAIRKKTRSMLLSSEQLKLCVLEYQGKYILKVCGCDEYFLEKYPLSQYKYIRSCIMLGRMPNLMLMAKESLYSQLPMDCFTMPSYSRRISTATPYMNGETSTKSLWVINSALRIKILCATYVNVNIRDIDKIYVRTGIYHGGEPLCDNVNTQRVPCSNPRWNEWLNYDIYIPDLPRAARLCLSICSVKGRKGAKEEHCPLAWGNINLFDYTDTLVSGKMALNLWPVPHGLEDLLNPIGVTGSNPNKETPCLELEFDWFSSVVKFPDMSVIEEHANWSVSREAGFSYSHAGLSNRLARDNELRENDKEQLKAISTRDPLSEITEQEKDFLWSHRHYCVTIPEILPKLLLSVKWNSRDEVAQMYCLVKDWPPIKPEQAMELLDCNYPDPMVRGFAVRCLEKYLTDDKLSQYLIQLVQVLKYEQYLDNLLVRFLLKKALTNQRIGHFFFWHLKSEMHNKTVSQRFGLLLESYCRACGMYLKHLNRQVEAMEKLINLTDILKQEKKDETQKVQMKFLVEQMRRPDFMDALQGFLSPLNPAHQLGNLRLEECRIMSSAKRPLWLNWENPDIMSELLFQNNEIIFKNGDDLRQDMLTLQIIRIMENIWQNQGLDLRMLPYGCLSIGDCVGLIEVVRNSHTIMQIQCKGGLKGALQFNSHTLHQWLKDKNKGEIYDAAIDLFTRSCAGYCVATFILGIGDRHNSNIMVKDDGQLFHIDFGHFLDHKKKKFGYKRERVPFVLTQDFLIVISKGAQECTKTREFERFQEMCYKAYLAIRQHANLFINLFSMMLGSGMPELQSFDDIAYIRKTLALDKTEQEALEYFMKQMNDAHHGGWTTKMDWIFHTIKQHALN
T1 sequence (P42338 with tags, fused parts or gaps limits assumed): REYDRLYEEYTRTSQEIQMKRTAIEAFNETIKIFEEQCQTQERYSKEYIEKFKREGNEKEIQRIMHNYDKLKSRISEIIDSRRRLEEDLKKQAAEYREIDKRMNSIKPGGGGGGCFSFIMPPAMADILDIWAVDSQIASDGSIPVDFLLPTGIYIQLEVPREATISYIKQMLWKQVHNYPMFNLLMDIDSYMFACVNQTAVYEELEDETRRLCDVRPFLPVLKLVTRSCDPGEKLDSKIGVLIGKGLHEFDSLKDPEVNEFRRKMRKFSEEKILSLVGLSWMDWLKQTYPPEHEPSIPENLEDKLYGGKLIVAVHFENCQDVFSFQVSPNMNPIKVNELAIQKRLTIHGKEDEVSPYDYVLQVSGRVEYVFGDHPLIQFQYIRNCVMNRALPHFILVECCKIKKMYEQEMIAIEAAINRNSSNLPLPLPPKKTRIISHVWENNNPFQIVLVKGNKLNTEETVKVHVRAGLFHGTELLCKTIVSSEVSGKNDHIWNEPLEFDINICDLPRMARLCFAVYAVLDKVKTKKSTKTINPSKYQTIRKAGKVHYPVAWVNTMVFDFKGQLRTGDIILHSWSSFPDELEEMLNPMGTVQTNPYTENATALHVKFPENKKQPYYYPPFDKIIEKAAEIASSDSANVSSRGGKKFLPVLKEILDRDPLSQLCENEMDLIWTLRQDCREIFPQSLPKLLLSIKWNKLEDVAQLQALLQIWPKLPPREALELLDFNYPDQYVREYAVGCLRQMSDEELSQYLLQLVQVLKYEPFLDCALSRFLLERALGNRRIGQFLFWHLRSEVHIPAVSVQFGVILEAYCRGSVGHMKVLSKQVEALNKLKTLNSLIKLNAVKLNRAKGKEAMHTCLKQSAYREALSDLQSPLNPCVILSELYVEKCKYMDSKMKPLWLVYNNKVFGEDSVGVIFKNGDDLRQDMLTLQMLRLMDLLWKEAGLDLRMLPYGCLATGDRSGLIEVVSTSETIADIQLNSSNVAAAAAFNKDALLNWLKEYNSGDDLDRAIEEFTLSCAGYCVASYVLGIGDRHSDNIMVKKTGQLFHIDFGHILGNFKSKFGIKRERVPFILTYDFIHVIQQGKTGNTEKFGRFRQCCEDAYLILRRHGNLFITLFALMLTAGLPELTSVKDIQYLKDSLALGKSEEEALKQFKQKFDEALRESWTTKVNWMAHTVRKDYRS

Take `Nc1ncc(-c2cnc3ccc(-c4ccc(OCCN5CCCC5=O)cc4)nn23)cc1C(F)(F)F` [Example 97, 1-(2-{4-[3-(6-Amino-5-trifluoro-methyl-pyridin-3-yl)-imidazo [1,2-b]pyridazin-6-yl]-phenoxy}-ethyl)-pyrrolidin-2-one]: the IC50 in experiment [1] came out at 1550 nM; in experiment [2], 1020 nM; in experiment [3], 75 nM; in experiment [4], 56 nM.
Turning to `O=C1CCCN1CCOc1ccc(-c2ccc3ncc(-c4cnc5[nH]ccc5c4)n3n2)cc1` [Example 98, 1-(2-{4-[3-(1H-Pyrrolo[2,3-b]pyridin-5-yl)-imidazo [1,2-b]pyridazin-6-yl]-phenoxy}-ethyl)-pyrrolidin-2-one], the IC50 in experiment [1] was 2940 nM; in experiment [2], 2210 nM; in experiment [3] it was 28 nM; in experiment [4], 120 nM.
In the same order, the values of `Nc1ncc(-c2ccc3ncc(-c4ccc(C(=O)NCCN5CCOCC5)c(F)c4)n3n2)cc1C(F)(F)F` [Example 99, 4-[6-(6-Amino-5-trifluoro-methyl-pyridin-3-yl)-imidazo [1,2-b]pyridazin-3-yl]-2-fluoro-N-(2-morpholin-4-yl-ethyl)-benzamide] are 82 nM, 584 nM, 9 nM and 15 nM.
Consider `Nc1ncc(-c2ccc3ncc(-c4ccc(C(=O)NCCCN5CCOCC5)c(F)c4)n3n2)cc1C(F)(F)F` [Example 100, 4-[6-(6-Amino-5-trifluoro-methyl-pyridin-3-yl)-imidazo [1,2-b]pyridazin-3-yl]-2-fluoro-N-(3-morpholin-4-yl-propyl)-benzamide], for which the IC50 was 94 nM in experiment [1], 419 nM in experiment [2], 24 nM in experiment [3] and 26 nM in experiment [4].
Regarding `Nc1ncc(-c2ccc3ncc(-c4ccc(C(=O)N5CCN(Cc6ccccn6)CC5)c(F)c4)n3n2)cc1C(F)(F)F` [Example 101, {4-[6-(6-Amino-5-trifluoro-methyl-pyridin-3-yl)-imidazo [1,2-b]pyridazin-3-yl]-2-fluoro-phenyl}-(4-pyridin-2-ylmethyl-piperazin-1-yl)-methanone], the IC50 in experiment [1] stood at 168 nM; in experiment [2], 1170 nM; in experiment [3], 8 nM; in experiment [4], 30 nM.
Consider `Nc1ncc(-c2ccc3ncc(-c4ccc(S(=O)(=O)N5CCOCC5)cc4)n3n2)cc1C(F)(F)F` [Example 102, 5-{3-[4-(Morpholine-4-sulfonyl)-phenyl]-imidazo[1,2-b]pyridazin-6-yl}-3-trifluoromethyl-pyridin-2-ylamine], for which the IC50 in experiment [1] was 1270 nM; in experiment [2], 1060 nM; in experiment [3], 43 nM; in experiment [4], 17 nM.
As to `COc1cc(-c2ccc3ncc(-c4cnc(N)c(C(F)(F)F)c4)n3n2)ccc1OCCN1CCCC1=O` [Example 103, 1-(2-{4-[3-(6-Amino-5-trifluoro-methyl-pyridin-3-yl)-imidazo [1,2-b]pyridazin-6-yl]-2-methoxy-phenoxy}-ethyl)-pyrrolidin-2-one], the IC50 in experiment [1] is 134 nM; in experiment [2], 573 nM; in experiment [3], 4 nM; in experiment [4] it was 11 nM.
With `C=CS(=O)(=O)c1ccc(-c2cnc3ccc(-c4cnc(N)c(C(F)(F)F)c4)nn23)cc1` [Example 104, 5-[3-(4-Ethene-sulfonyl-phenyl)-imidazo [1,2-b]pyridazin-6-yl]-3-trifluoro-methyl-pyridin-2-ylamine], the IC50 was found to be 143 nM in experiment [1], 1420 nM in experiment [2], 27 nM in experiment [3] and 21 nM in experiment [4].
Take `Nc1ncc(-c2ccc3ncc(-c4ccc(S(=O)(=O)CCN5CCOCC5)cc4)n3n2)cc1C(F)(F)F` [Example 105, 5-{3-[4-(2-Morpholin-4-yl-ethane-sulfonyl)-phenyl]-imidazo [1,2-b]pyridazin-6-yl}-3-trifluoro-methyl-pyridin-2-ylamine]: the IC50 in experiment [1] stood at 463 nM; in experiment [2], 362 nM; in experiment [3] it was 24 nM; in experiment [4] it was 18 nM.
